Here are results for one molecule from PMC4303311 (Biochemistry, 2014).

For the assay, the target named is T1, bacteriorhodopsin (BR) (Halobacterium salinarum, UniProt P02945).
T1 sequence (P02945 14-262): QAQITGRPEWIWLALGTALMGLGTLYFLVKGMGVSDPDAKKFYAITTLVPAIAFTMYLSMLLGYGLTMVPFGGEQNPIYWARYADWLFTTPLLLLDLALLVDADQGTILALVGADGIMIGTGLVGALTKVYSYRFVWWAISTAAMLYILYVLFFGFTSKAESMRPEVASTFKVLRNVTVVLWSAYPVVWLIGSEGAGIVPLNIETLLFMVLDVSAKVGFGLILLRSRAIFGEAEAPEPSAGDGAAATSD
The assay can be described thus: low-temperature FTIR-difference spectroscopy. In kind it is binding. The note with it: covalent; protonated Schiff base; 80 K; native purple membrane.

In the case of `CC1=C(/C=C/C(C)=C/C=C/C(C)=C/C=O)C(C)(C)CCC1` [A1 retinal, all-trans-retinal], the “low-temperature FTIR-difference spectroscopy” value is “Negative bands appear at similar frequencies in the FTIR-difference spectrum of CaChR1 and BR”.
